According to patent publication US20170209473A1, “ADIPONECTIN SECRETION REGULATOR” (THE UNIVERSITY OF TOKYO, priority 2014, published 2017):

How the values were obtained:
Format in all cases: cell-based, Mouse
adiponectin = assay: Adiponectin expression by adipocytes, reducing SDS-PAGE / Western blotting of culture supernatant; details: 3T3-L1-derived adipocytes, 24 hours serum-free DMEM, FIG. 1
Method: (§1) Mouse 3T3-L1 fibroblasts in a confluent state were induced with insulin to differentiate into adipocytes. The cells were then cultured for 48 hours in a DMEM medium containing 10% FBS. The cells were then cultured for 24 hours in a serum-free DMEM medium including L-fucose and/or D-glucose at the concentrations for each test section indicated in Table 1.
(§2) After culturing, the culture supernatant was collected and mixed with an equal amount of reducing SDS-PAGE (polyacrylamide gel electrophoresis) loading buffer and held for 10 minutes at 100° C., a 5-10-μL sample for each lane was subjected to SDS-PAGE, and the nuclear-receptor-type transcription factor PPAR-gamma, actin as an internal standard protein, and adiponectin were detected by a Western blotting method using specific antibodies for each in accordance with the usual method. A near-infrared fluorescence imager (“Odyssey Fc,” manufactured by LI-COR, Inc.) was used for the detection, and the relative expression levels of each protein were compared.

[1] = tested on: nuclear-receptor-type transcription factor PPAR-gamma; assay: PPAR-gamma expression in adipocytes, Western blotting; details: 3T3-L1-derived adipocytes, 24 hours, FIG. 1
Method: as §1, §2

[2] = tested on: adiponectin monomers, trimers, hexamers and multimers; assay: Adiponectin multimerization state, non-reducing SDS-PAGE / Western blotting of culture supernatant; details: FIG. 2
Method: as §1
The cell culture supernatant in the same test sections as in Test Example 1 was collected, equivalent samples for each test section were subjected to non-reducing SDS-PAGE, and adiponectin monomers appearing at a molecular weight position of approximately 30 kDa, trimers appearing at a position of approximately 100 kDa, hexamers appearing at a position of approximately 200 kDa, and multimers appearing at higher molecular weight positions were detected by a Western blotting method using specific antibodies for adiponectin. A near-infrared fluorescence imager (“Odyssey Fc,” manufactured by LI-COR, Inc.) was used for the detection, and the various multimerization states were compared.

[3] = 0.1 w/v % glucose + 0.1 w/v % L-fucose (test section 2) vs test section 1, tendency more pronounced at low glucose
[4] = 0.45 w/v % glucose + 0.1 w/v % L-fucose (test section 4) vs test section 3

Structure (SMILES): C[C@H](O)[C@@H](O)[C@@H](O)[C@H](O)C=O [L-fucose]
- expression level of adiponectin (adiponectin; 0.1 w/v % glucose + 0.1 w/v % fucose (test section 2) vs test section 1 without fucose): tendency for the expression level of adiponectin to decrease
- expression level of adiponectin (adiponectin; 0.45 w/v % glucose + 0.1 w/v % fucose (test section 4) vs test section 3 without fucose): tendency for the expression level of adiponectin to decrease
- expression level of PPAR-gamma ([1]; 0.1 w/v % D-glucose + 0.1 w/v % L-fucose (test section 2) vs test section 1): almost no change
- expression level of PPAR-gamma ([1]; 0.45 w/v % D-glucose + 0.1 w/v % L-fucose (test section 4) vs test section 3): slight decrease
- adiponectin multimers [2, 3]: increased
- incidence of adiponectin monomers, trimers, and hexamers [2, 3]: reduced
- adiponectin multimers [2, 4]: increased
- incidence of adiponectin monomers, trimers, and hexamers [2, 4]: reduced
